Reference: patent publication US6376510B1, “Neuromuscular relaxants” (Newlaxant LLC, priority 1997, dated 2002)
Like-named read-outs stand apart in the source and are kept apart here.

Assays:
rabbits = test: In vivo neuromuscular block and cardiovascular side effects, rabbit (Example 8, Table 7); details: for ED50: intravenous dose causing 50% neuromuscular block; for RI (recovery index): spontaneous recovery, 25-75% neuromuscular response; for Onset: time to 80-85% neuromuscular block
[1] = test system: anesthetized juvenile pigs; test: animal or person; assay type: in vivo; details: pig; for ED50: intravenous dose causing 50% neuromuscular block; for RI (recovery index): spontaneous recovery, 25-75% neuromuscular response; for Onset: time to 80-85% neuromuscular block
Text: Both electromyographic and mechanomyographic responses can be quantified.
The techniques described under a) and b) were employed in other species as needed with the modification that juvenile pigs were initially anesthetized with inhalation of halothane (Table 5) and monkeys were initially sedated with intramuscular ketamine injections prior to inducing and maintaining general anesthesia using pentobarbital and propofol administered intravenously (Table 6).

[2] = test system: anesthetized rats (evoked responses of anterior tibial muscle); test: In vivo neuromuscular block and cardiovascular side effects, anesthetized rat (Example 8, Table 3); details: for RI (recovery index): spontaneous recovery, 25-75% neuromuscular response; for Onset: time to 80-85% neuromuscular block
Text: The neuromuscular blocking activity and other effects (e.g. cardiovascular side effects) of selected agents were investigated on several different experimental animals. Justification for this approach lies in the commonly known fact that the pharmacodynamic and pharmacokinetic properties of these agents are markedly variable from species to species. Therefore, the most important aspects of the projected therapeutic utility of these agents, e.g., neuromuscular blocking potency, onset and duration of action, and side effects cannot be ascertained in “in vitro” preparations or by using only one species of animals.
a) Adult, male albino rats were anesthetized with pentobarbital injected intraperitoneally. The trachea was cannulated for artificial respiration via a small animal respirator. The carotid artery was cannulated for recording blood pressure via a transducer and heart rate by a cardiotachograph on a polygraph. One external jugular vein was cannulated for i.v. drug administration. Neuromuscular function was monitored by electromyography, recording evoked responses from the anterior tibial muscle as a result of supramaximal nerve stimuli consisting of single or “train-of-four” rectangular pulses of 0.1-0.2 msec duration every 10-12 seconds, delivered to the sciatic or common peroneal nerve by a laboratory nerve stimulator. Another mode of stimulation included repeated single stimuli delivered at 0.1 Hz or 1 Hz. […] The agents were dissolved in physiologic saline and injected intravenously at appropriate time intervals. The intensity, onset, and duration of neuromuscular block and its type were determined with each agent. Through administering several doses, the doses corresponding to 50%, 80% and 90% neuromuscular block were determined. All agents were compared with selected standard neuromuscular blocking compounds, e.g. succinylcholine, pancuronium, mivacurium, or rocuronium.
Onset=time in minutes to 80-85% neuromuscular block.
RI=recovery index, minutes, spontaneous recovery, 25-75% neuromuscular response.
VB=vagal block, %, at 80-85% neuromuscular blocking dose.
ΔHR=change in heart rate, %, at 80-85% neuromuscular blocking dose.
ΔBP=change in arterial blood pressure, %, at 80-85% neuromuscular blocking dose.

[3] = rat, at 80-85% neuromuscular blocking dose
[4] = rat, intravenous dose causing 50% neuromuscular block
[5] = Oryctolagus cuniculus, read-out: ED50
[6] = at 80-85% neuromuscular blocking dose

| VB (vagal block) ([1]; in vivo) [%] | SMILES | ΔBP (change in arterial blood pressure) (rabbits; in vivo) [%] | ΔH (change in heart rate) (rabbits; in vivo) [%] | ED50 (rabbits) [mg/kg] | RI (recovery index) (rabbits) [min] | Onset (rabbits) [min] | ΔBP (change in arterial blood pressure) ([1]; in vivo) [%] | ΔH (change in heart rate) ([1]; in vivo) [%] | ED50 [1] [mg/kg] | RI (recovery index) [1] [min] | Onset [1] [min] | VB (vagal block) [2, 3] [%] | ΔBP (change in arterial blood pressure) [2, 3] [%] | ΔH (change in heart rate) [2, 3] [%] | ED50 [2, 4] [mg/kg] | RI (recovery index) ([2]; rat) [min] | Onset ([2]; rat) [min] | VB (vagal block) ([2]; rat, in vivo) [%] | ΔBP (change in arterial blood pressure) ([2]; rat, in vivo) [%] | ΔH (change in heart rate) ([2]; rat, in vivo) [%] | also measured |
| --- | --- | --- | --- | --- | --- | --- | --- | --- | --- | --- | --- | --- | --- | --- | --- | --- | --- | --- | --- | --- | --- |
| 18 | CCC(=O)Oc1ccc(C[N+]2(C)C3CCCC2CC(OC(=O)C2CCC2C(=O)OC2CC4CCCC(C2)[N+]4(C)Cc2ccc(OC(=O)CC)c(OC(=O)CC)c2)C3)cc1OC(=O)CC.[Br-].[Br-] (centres unmarked) [bis[N-(3,4-dipropionyloxybenzyl)granataninium-3-yl]cyclobutane-1,2-dicarboxylate dibromide] | 0 | 0 | 0.225 | 0.5 | 0.55 | 0 | 0 | 0.19 | 0.4 | 0.5 | – | – | – | 0.155 | 0.35 | 0.45 | 0 | 0 | 0 | – |
| 35 | CCC(=O)Oc1ccc(C[N+]2(C)C3CCCC2CC(OC(=O)CCCC(=O)OC2CC4CCCC(C2)[N+]4(C)Cc2ccc(OC(=O)CC)c(OC(=O)CC)c2)C3)cc1OC(=O)CC.[Br-].[Br-] (centres unmarked) [bis[N-(3,4-dipropionyloxybenzyl)granataninium-3-yl]glutarate dibromide] | 0 | 0 | 0.135 | 0.55 | 0.7 | 0 | 0 | 0.23 | 0.65 | 0.5 | – | – | – | 0.26 | 0.4 | 0.55 | 0 | 0 | 0 | – |

The remaining lines, values behind:

| SMILES | VB (vagal block) ([1]; in vivo) [%] | ΔBP (change in arterial blood pressure) (rabbits; in vivo) [%] | ΔH (change in heart rate) (rabbits; in vivo) [%] | ED50 (rabbits) [mg/kg] | RI (recovery index) (rabbits) [min] | Onset (rabbits) [min] | ΔBP (change in arterial blood pressure) ([1]; in vivo) [%] | ΔH (change in heart rate) ([1]; in vivo) [%] | ED50 [1] [mg/kg] | RI (recovery index) [1] [min] | Onset [1] [min] | VB (vagal block) [2, 3] [%] | ΔBP (change in arterial blood pressure) [2, 3] [%] | ΔH (change in heart rate) [2, 3] [%] | ED50 [2, 4] [mg/kg] | RI (recovery index) ([2]; rat) [min] | Onset ([2]; rat) [min] | VB (vagal block) ([2]; rat, in vivo) [%] | ΔBP (change in arterial blood pressure) ([2]; rat, in vivo) [%] | ΔH (change in heart rate) ([2]; rat, in vivo) [%] | also measured |
| --- | --- | --- | --- | --- | --- | --- | --- | --- | --- | --- | --- | --- | --- | --- | --- | --- | --- | --- | --- | --- | --- |
| COc1cc(C[N+]2(C)C3CCC2CC(OC(=O)C2C4C=CC(C4)C2C(=O)OC2CC4CCC(C2)[N+]4(C)Cc2cc(OC)c(OC(C)=O)c(OC)c2)C3)cc(OC)c1OC(C)=O.[Br-].[Br-] (stereo not drawn) [bis[N-(4-acetoxy-3,5-dimethoxybenzyl)tropanium-3α-yl]trans-3,6-endomethylene-1,2,3,6-tetrahydrophthalate dibromide] | 26 | 0 | 0 | 0.145 | 0.45 | 0.45 | 0 | 0 | 0.343 | 2 | 0.54 | 20 | 0 | 0 | 0.2 | 0.8 | 0.7 | – | – | – | – |
| COc1cc(C[N+]2(C)[C@@H]3CC[C@H]2C[C@@H](OC(=O)CCCCCCCCCC(=O)O[C@H]2C[C@H]4CC[C@@H](C2)[N+]4(C)Cc2cc(OC)c(OC)c(OC)c2)C3)cc(OC)c1OC.[Br-].[Br-] (stereo partly drawn) [bis[N-(3,4,5-trimethoxybenzyl)tropanium-3α-yl]1,9-nonanedicarboxylate dibromide] | – | – | – | – | 2.5 | 1.3 | – | – | – | 2.4 | 1.5 | 10 | 0 | 0 | – | 1.8 | 0.8 | – | – | – | ED50 (rabbits; [5]): 0.07 mg/kg; ΔBP (change in arterial blood pressure) (rabbits; [6]): 0%; ΔH (change in heart rate) (rabbits; [6]): 0%; ED50 ([1]; Sus scrofa, read-out: ED50): 0.31 mg/kg; VB (vagal block) [1, 6]: 40%; ΔBP (change in arterial blood pressure) [1, 6]: 0%; ΔH (change in heart rate) [1, 6]: 0%; ED50 ([2]; Rattus norvegicus, iv): 0.18 mg/kg |
| CCC(=O)Oc1ccc(C[N+]2(C)C3CCCC2CC(OC(=O)CCCCC(=O)OC2CC4CCCC(C2)[N+]4(C)Cc2ccc(OC(=O)CC)c(OC(=O)CC)c2)C3)cc1OC(=O)CC.[Br-].[Br-] (centres unmarked) [bis[N-(3,4-dipropionyloxybenzyl)granataninium-3-yl]adipate dibromide] | 43 | 0 | 0 | 0.16 | 0.5 | 0.5 | 0 | 0 | 0.275 | 0.4 | 0.45 | – | – | – | 0.32 | 0.35 | 0.4 | 0 | −4 | 0 | – |
| CCC(=O)Oc1ccc(C[N+]2(C)[C@@H]3CC[C@H]2C[C@@H](OC(=O)C2CCC2C(=O)O[C@H]2C[C@H]4CC[C@@H](C2)[N+]4(C)Cc2ccc(OC(=O)CC)c(OC(=O)CC)c2)C3)cc1OC(=O)CC.[Br-].[Br-] (stereo partly drawn) [bis[N-(3,4-dipropionyloxybenzyl)tropanium-3α-yl]cyclobutane-1,2-dicarboxylate dibromide] | – | – | – | – | 0.5 | 0.87 | – | – | – | 0.6 | 0.7 | 17 | 0 | 0 | – | 0.6 | 0.6 | – | – | – | ED50 (rabbits; [5]): 0.128 mg/kg; ΔBP (change in arterial blood pressure) (rabbits; [6]): 0%; ΔH (change in heart rate) (rabbits; [6]): 0%; ED50 ([1]; Sus scrofa, read-out: ED50): 0.317 mg/kg; VB (vagal block) [1, 6]: 50%; ΔBP (change in arterial blood pressure) [1, 6]: 0%; ΔH (change in heart rate) [1, 6]: 0%; ED50 ([2]; Rattus norvegicus, iv): 0.238 mg/kg |
| CCC(=O)Oc1ccc(C[N+]2(C)C3CCCC2CC(OC(=O)CCCCCC(=O)OC2CC4CCCC(C2)[N+]4(C)Cc2ccc(OC(=O)CC)c(OC(=O)CC)c2)C3)cc1OC(=O)CC.[Br-].[Br-] (centres unmarked) [bis[N-(3,4-dipropionyloxybenzyl)granataninium-3-yl]pimelate dibromide] | 30 | 0 | 0 | 0.5 | 0.4 | 0.45 | 0 | 0 | 0.7 | 0.5 | 0.5 | – | – | – | 0.45 | 0.35 | 0.5 | 2 | −6 | −3 | – |
